Experimental data: US9273058B2 (BRISTOL-MYERS SQUIBB COMPANY, priority 2013, dated 2016)
Where two headings read alike, the source gives them in different places.

What was measured:
CK1ε = CK1ε (Homo sapiens, UniProt P49674); assay: CK1ε kinase assay (Caliper LabChip electrophoretic separation of fluoresceinated peptide substrate and product); type: biochemical; settings: 200 pM CK1ε, 50 μM ATP, 1.5 μM peptide, 22 hours at room temperature
How it was run: (§1)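 Each reaction was incubated 22 hours at room temperature and terminated with EDTA. Read-out was microfluidic electrophoretic separation of fluoresceinated substrate and phospho-product.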

CK1δ = CK1δ (Homo sapiens, UniProt P48730); assay: CK1δ kinase assay (Caliper LabChip electrophoretic separation of fluoresceinated peptide substrate and product); type: biochemical; settings: 200 pM CK1δ, 50 μM ATP, 1.5 μM peptide, 22 hours at room temperature
Chain of CK1δ (P48730 whole entry): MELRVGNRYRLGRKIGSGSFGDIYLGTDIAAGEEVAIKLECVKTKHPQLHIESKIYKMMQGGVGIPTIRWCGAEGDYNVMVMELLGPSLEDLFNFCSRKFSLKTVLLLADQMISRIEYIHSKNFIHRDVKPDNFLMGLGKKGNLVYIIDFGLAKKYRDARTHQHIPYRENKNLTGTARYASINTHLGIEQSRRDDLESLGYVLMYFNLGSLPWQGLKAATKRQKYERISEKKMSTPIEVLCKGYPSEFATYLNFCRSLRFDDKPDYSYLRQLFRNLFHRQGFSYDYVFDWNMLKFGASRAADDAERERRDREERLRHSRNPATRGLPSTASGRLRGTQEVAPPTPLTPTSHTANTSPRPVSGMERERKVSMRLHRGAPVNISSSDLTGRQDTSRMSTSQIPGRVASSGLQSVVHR
How it was run: as §1

Chain of CK1ε (P49674 whole entry): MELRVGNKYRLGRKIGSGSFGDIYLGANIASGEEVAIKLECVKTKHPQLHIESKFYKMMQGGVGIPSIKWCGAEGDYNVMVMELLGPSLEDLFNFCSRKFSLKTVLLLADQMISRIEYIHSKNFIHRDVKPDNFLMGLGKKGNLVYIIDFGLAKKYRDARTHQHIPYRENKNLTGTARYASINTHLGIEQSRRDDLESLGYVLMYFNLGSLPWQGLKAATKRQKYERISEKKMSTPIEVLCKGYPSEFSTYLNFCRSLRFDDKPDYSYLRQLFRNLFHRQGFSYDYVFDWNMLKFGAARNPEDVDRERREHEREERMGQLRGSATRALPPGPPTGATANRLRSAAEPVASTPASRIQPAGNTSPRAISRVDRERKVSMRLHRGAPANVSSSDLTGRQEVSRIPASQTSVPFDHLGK

Row | Compound | IC50 (CK1ε; read-out: CK1ε IC50 range) | IC50 (CK1δ; read-out: CK1δ IC50 range) | IC50 (CK1ε; read-out: CK1ε) | IC50 (CK1δ; read-out: CK1δ)
1 | CC(C)(C)NC(=O)N1CCn2nc(-c3cccnc3)c(C(N)=O)c2C1 [Compound 111, N^5-(tert-Butyl)-2-(pyridin-3-yl)-6,7-dihydropyrazolo[1,5-a]pyrazine-3,5(4H)-dicarboxamide] | 100 to 2000 nM | 100 to 2000 nM |  | 
2 | CC(C)(C)NC(=O)N1CCn2nc(-c3ccnc(F)c3)c(C(N)=O)c2C1 [Compound 112, N^5-(tert-Butyl)-2-(2-fluoropyridin-4-yl)-6,7-dihydropyrazolo[1,5-a] pyrazine-3,5(4H)-dicarboxamide] | 100 to 2000 nM | 10 to 100 nM |  | 
3 | CC(C)(C)NC(=O)N1CCn2nc(-c3cccc(C#N)c3)c(C(N)=O)c2C1 [Compound 114, N^5-(tert-Butyl)-2-(3-cyanophenyl)-6,7-dihydropyrazolo[1,5-a] pyrazine-3,5(4H)-dicarboxamide] | 10 to 100 nM | 10 to 100 nM | 43 nM | 12.5 nM
4 | CC(C)(C)NC(=O)N1CCn2nc(-c3cc(F)cc(C#N)c3)c(C(N)=O)c2C1 [Compound 115, N^5-(tert-Butyl)-2-(3-cyano-5-fluorophenyl)-6,7-dihydropyrazolo[1,5-a] pyrazine-3,5(4H)-dicarboxamide] | 100 to 2000 nM | 10 to 100 nM |  | 
5 | CC(C)(C)NC(=O)N1CCn2nc(-c3ccccc3)c(C(N)=O)c2C1 [Compound 116, N^5-(tert-Butyl)-2-phenyl-6,7-dihydropyrazolo[1,5-a] pyrazine-3,5(4H)-dicarboxamide] | 10 to 100 nM | 10 to 100 nM | 79.8 nM | 18.2 nM
6 | CC(C)(C)NC(=O)N1CCn2nc(-c3cccc(NS(C)(=O)=O)c3)c(C(N)=O)c2C1 [Compound 118, N^5-(tert-Butyl)-2-(3-(methylsulfonamido)phenyl)-6,7-dihydropyrazolol[1,5-a] pyrazine-3,5(4H)-dicarboxamide] | 100 to 2000 nM | 100 to 2000 nM |  | 
7 | CC(C)(C)NC(=O)N1CCn2nc(-c3cccc(N)c3)c(C(N)=O)c2C1 [Compound 120, 2-(3-Aminophenyl)-N^5-(tert-butyl)-6,7-dihydropyrazolo [1,5-a]pyrazine-3,5(4H)-dicarboxamide] | 100 to 2000 nM | 10 to 100 nM |  | 
8 | CC(C)(C)NC(=O)N1CCn2nc(-c3ccsc3)c(C(N)=O)c2C1 [Compound 121, N^5-(tert-Butyl)-2-(thiophen-3-yl)-6,7-dihydropyrazolo[1,5-a]pyrazine-3,5(4H)-dicarboxamide] | 100 to 2000 nM | 10 to 100 nM |  | 
9 | CC(C)(C)NC(=O)N1CCn2nc(-c3cccc(C(=O)O)c3)c(C(N)=O)c2C1 [Compound 122, 3-(5-(tert-Butylcarbamoyl)-3-carbamoyl-4,5,6,7-tetrahydropyrazolo[1,5-a]pyrazin-2-yl)benzoic acid] | 100 to 2000 nM | 100 to 2000 nM |  | 
10 | CC(C)(C)NC(=O)N1CCn2nc(-c3cccc(C(N)=O)c3)c(C(N)=O)c2C1 [Compound 123, N^5-(tert-Butyl)-2-(3-carbamoylphenyl)-6,7-dihydropyrazolo[1,5-a] pyrazine-3,5(4H)-dicarboxamide] | 100 to 2000 nM | 10 to 100 nM |  | 
11 | CC(C)(C)NC(=O)N1CCn2nc(-c3ccc(F)cc3F)c(C(N)=O)c2C1 [Compound 124, N^5-(tert-Butyl)-2-(2,4-difluorophenyl)-6,7-dihydropyrazolo[1,5-a] pyrazine-3,5(4H)-dicarboxamide] |  |  | 118 nM | 172 nM
12 | CC(C)(C)NC(=O)N1CCn2nc(-c3ccc(F)nc3F)c(C(N)=O)c2C1 [Compound 125, N^5-(tert-Butyl)-2-(2,6-difluoropyridin-3-yl)-6,7-dihydropyrazolo[1,5-a] pyrazine-3,5(4H)-dicarboxamide] | 100 to 2000 nM | 100 to 2000 nM |  | 
13 | CC(C)(C)NC(=O)N1CCn2nc(-c3ccncc3)c(C(N)=O)c2C1 [Compound 126, N^5-(tert-Butyl)-2-(pyridin-4-yl)-6,7-dihydropyrazolo[1,5-a]pyrazine-3,5(4H)-dicarboxamide] | 100 to 2000 nM | 100 to 2000 nM | 844 nM | 442 nM
14 | CC(C)(C)NC(=O)N1CCn2nc(-c3ccc(C#N)cc3)c(C(N)=O)c2C1 [Compound 127, N^5-(tert-Butyl)-2-(4-cyanophenyl)-6,7-dihydropyrazolo[1,5-a] pyrazine-3,5(4H)-dicarboxamide] | 100 to 2000 nM | 100 to 2000 nM | 444 nM | 357 nM
15 | CC(C)(C)NC(=O)N1CCn2nc(-c3cccc(Cl)c3Cl)c(C(N)=O)c2C1 [Compound 130, N^5-(tert-Butyl)-2-(2,3-dichlorophenyl)-6,7-dihydropyrazolo[1,5-a] pyrazine-3,5(4H)-dicarboxamide] | 10 to 100 nM | 10 to 100 nM | 89.5 nM | 96.4 nM
16 | CC(C)(C)NC(=O)N1CCn2nc(-c3ccccc3C(N)=O)c(C(N)=O)c2C1 [Compound 131, N^5-(tert-Butyl)-2-(2-carbamoylphenyl)-6,7-dihydropyrazolo[1,5-a] pyrazine-3,5(4H)-dicarboxamide] | 100 to 2000 nM | 100 to 2000 nM |  | 

Row | Compound | IC50 (CK1ε; read-out: CK1ε IC50 range) | IC50 (CK1δ; read-out: CK1δ IC50 range) | IC50 (CK1ε; read-out: CK1ε) | IC50 (CK1δ; read-out: CK1δ)
17 | CC(C)(C)NC(=O)N1CCn2nc(-c3cccc4ncccc34)c(C(N)=O)c2C1 [Compound 132, N^5-(tert-Butyl)-2-(quinolin-5-yl)-6,7-dihydropyrazolo[1,5-a]pyrazine-3,5(4H)-dicarboxamide] | 100 to 2000 nM | 100 to 2000 nM |  | 
18 | CC(C)(C)NC(=O)N1CCn2nc(-c3cncc4ccccc34)c(C(N)=O)c2C1 [Compound 133, N^5-(tert-Butyl)-2-(isoquinolin-4-yl)-6,7-dihydropyrazolo[1,5-a] pyrazine-3,5(4H)-dicarboxamide] | 100 to 2000 nM | 100 to 2000 nM |  | 
19 | CC(C)(C)NC(=O)N1CCn2nc(-c3cccc4cnccc34)c(C(N)=O)c2C1 [Compound 134, N^5-(tert-Butyl)-2-(isoquinolin-5-yl)-6,7-dihydropyrazolo[1,5-a] pyrazine-3,5(4H)-dicarboxamide] | 100 to 2000 nM | 100 to 2000 nM |  | 
20 | CC(C)(C)NC(=O)N1CCn2nc(-c3cccc(CNS(C)(=O)=O)c3)c(C(N)=O)c2C1 [Compound 135, N^5-(tert-Butyl)-2-(3-(methylsulfonamidomethyl)phenyl)-6,7-dihydropyrazolo [1,5-a]pyrazine-3,5(4H)-dicarboxamide] | 100 to 2000 nM | 100 to 2000 nM |  | 
21 | CC(C)(C)NC(=O)N1CCn2nc(-c3cccc(S(N)(=O)=O)c3)c(C(N)=O)c2C1 [Compound 136, N^5-(tert-Butyl)-2-(3-sulfamoylphenyl)-6,7-dihydropyrazolo[1,5-a] pyrazine-3,5(4H)-dicarboxamide] | 100 to 2000 nM | 100 to 2000 nM |  | 
22 | CC(C)(C)NC(=O)N1CCn2nc(-c3cccc(OC(F)(F)F)c3)c(C(N)=O)c2C1 [Compound 138, N^5-(tert-Butyl)-2-(3-(trifluoromethoxy)phenyl)-6,7-dihydropyrazolo[1,5-a] pyrazine-3,5(4H)-dicarboxamide] | 100 to 2000 nM | 100 to 2000 nM |  | 
23 | CC(C)(C)NC(=O)N1CCn2nc(-c3ccc(F)c(C(F)(F)F)c3)c(C(N)=O)c2C1 [Compound 139, N^5-(tert-Butyl)-2-(4-fluoro-3-(trifluoromethyl)phenyl)-6,7-dihydropyrazolo[1,5-a] pyrazine-3,5(4H)-dicarboxamide] | 100 to 2000 nM | 10 to 100 nM |  | 
24 | CC(C)(C)NC(=O)N1CCn2nc(-c3cc4ccccc4nc3Cl)c(C(N)=O)c2C1 [Compound 140, N^5-(tert-Butyl)-2-(2-chloroquinolin-3-yl)-6,7-dihydropyrazolo[1,5-a] pyrazine-3,5(4H)-dicarboxamide] | 100 to 2000 nM | 100 to 2000 nM |  | 
25 | CC(C)(C)NC(=O)N1CCn2nc(-c3cccc(-c4ccccc4)c3)c(C(N)=O)c2C1 [Compound 141, 2-([1,1′-Biphenyl]-3-yl)-N^5-(tert-butyl)-6,7-dihydropyrazolo[1,5-a] pyrazine-3,5(4H)-dicarboxamide] | 100 to 2000 nM | 100 to 2000 nM |  | 
26 | CC(C)(C)NC(=O)N1CCn2nc(-c3cncnc3)c(C(N)=O)c2C1 [Compound 142, N^5-(tert-Butyl)-2-(pyrimidin-5-yl)-6,7-dihydropyrazolo [1,5-a]pyrazine-3,5(4H)-dicarboxamide] | 100 to 2000 nM | 100 to 2000 nM |  | 894 nM
27 | CC(C)(C)NC(=O)N1CCn2nc(-c3ccc4cc[nH]c4c3)c(C(N)=O)c2C1 [Compound 143] | 10 to 100 nM | 0.01 to 10 nM | 33.3 nM | 4.2 nM
28 | CC(C)(C)NC(=O)N1CCn2nc(-c3ccc(S(C)(=O)=O)cc3)c(C(N)=O)c2C1 [Compound 144, N^5-(tert-Butyl)-2-(4-(methylsulfonyl)phenyl)-6,7-dihydropyrazolo[1,5-a] pyrazine-3,5(4H)-dicarboxamide] | 100 to 2000 nM | 100 to 2000 nM |  | 
29 | CC(C)(C)NC(=O)N1CCn2nc(-c3cn[nH]c3)c(C(N)=O)c2C1 [Compound 145, N^5-(tert-Butyl)-2-(1H-pyrazol-4-yl)-6,7-dihydropyrazolo[1,5-a] pyrazine-3,5(4H)-dicarboxamide] | 100 to 2000 nM | 100 to 2000 nM | 1820 nM | 1050 nM
30 | CC(C)(C)NC(=O)N1CCn2nc(-c3cnc(N4CCCC4)nc3)c(C(N)=O)c2C1 [Compound 146, N^5-(tert-Butyl)-2-(2-(pyrrolidin-1-yl)pyrimidin-5-yl)-6,7-dihydropyrazolo[1,5-a]pyrazine-3,5(4H)-dicarboxamide] | 100 to 2000 nM | 100 to 2000 nM |  | 
31 | CC(C)(C)NC(=O)N1CCn2nc(-c3cnc(N4CCOCC4)nc3)c(C(N)=O)c2C1 [Compound 147, N^5-(tert-Butyl)-2-(2-morpholinopyrimidin-5-yl)-6,7-dihydropyrazolo[1,5-a] pyrazine-3,5(4H)-dicarboxamide] | 100 to 2000 nM | 100 to 2000 nM |  | 
